Literature values in patent US12233147B2, “Method for treating keratin material” (Henkel AG & Co. KGaA, priority 2019, dated 2025).

Conditions: 25° C.

Nc1cc(S(=O)(=O)[O-])cc2cc(S(=O)(=O)[O-])c(N=Nc3ccccc3)c(O)c12.[Na+].[Na+] [Acid Red 33, diantrium salt of 5-amino-4-hydroxy-3-(phenylazo)-naphthalene-2,7-disulphonate]
solubility in water: 2500 µg/mL

O=C([O-])C1=NN(c2ccc(S(=O)(=O)[O-])cc2)C(=O)C1N=Nc1ccc(S(=O)(=O)[O-])cc1.[Na+].[Na+].[Na+] (stereo not shown) [Acid Yellow 23, trisodium salt of 4,5-dihydro-5-oxo-1-(4-sulfophenyl)-4-((4-sulfophenyl)azo)-1H-pyrazole-3-carboxylic acid]
solubility in water: highly soluble in water

O=S(=O)([O-])c1ccc(N=Nc2c(O)ccc3ccccc23)cc1.[Na+] [Acid Orange 7, sodium salt of 4-[(2-hydroxy-1-naphthyl)azo]benzene sulphonate]
solubility in water: more than 7 g/L

O=C([O-])c1c(Cl)c(Cl)c(Cl)c(Cl)c1-c1c2c(Br)cc(=O)c(Br)c-2oc2c(Br)c(O)cc(Br)c12.O=C([O-])c1c(Cl)c(Cl)c(Cl)c(Cl)c1-c1c2c(Br)cc(=O)c(Br)c-2oc2c(Br)c(O)cc(Br)c12.[Na+].[Na+] [Acid Red 92, disodium salt of 3,4,5,6-tetrachloro-2-(1,4,5,8-tetrabromo-6-hydroxy-3-oxoxanthen-9-yl)benzoic acid]
solubility in water: greater than 10 g/L
